Each compound was assayed on HEK293T cells carrying the ATF4 luciferase reporter (assay: ATF4-Luc assay, in vitro model of Vanishing Cell White Matter Disease (VWMD)). Settings: Homo sapiens, HEK-293T, 1 μg/mL tunicamycin, 7 hours, One Glo luminescence.
Assay type: cell-based
Outline: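 Stable HEK293T line with human ATF4 5′-UTR–firefly luciferase reporter treated with 1 μg/mL tunicamycin plus 200 nM compound for 7 h. Luminescence read; EC50 derived.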

`CCNc1ccc(C(=O)NC23CC(NC(=O)COc4ccc(Cl)c(F)c4)(C2)C3)nc1` [Compound 269, N-{3-[2-(4-chloro-3-fluorophenoxy)acetamido]bicyclo[1.1.1]pentan-1-yl}-5-(ethylamino)pyridine-2-carboxamide] and `COc1ccnc(C(=O)NC23CC(NC(=O)COc4ccc(Cl)c(F)c4)(C2)C3)c1` [Compound 177, N-{3-[2-(4-chloro-3-fluorophenoxy)acetamido]bicyclo[1.1.1]pentan-1-yl}-4-methoxypyridine-2-carboxamide] fall in the same range of EC50: 250 to 1000 nM for the first, 250 to 1000 nM for the second.

First: Cc1cc(C(=O)NC23CC(NC(=O)COc4ccc(Cl)c(F)c4)(C2)C3)oc1C [Compound 612, N-{3-[2-(4-chloro-3-fluorophenoxy)acetamido]bicyclo[1.1.1]pentan-1-yl}-4,5-dimethylfuran-2-carboxamide]
Second: Cc1nocc1C(=O)NC12CC(NC(=O)COc3ccc(Cl)c(F)c3)(C1)C2 [Compound 879, N-{3-[2-(4-chloro-3-fluorophenoxy)acetamido]bicyclo[1.1.1]pentan-1-yl}-3-methyl-1,2-oxazole-4-carboxamide]
The EC50 of the first is lower: 50 to 250 nM for the first, > 2000 nM for the second. The first is the more potent here.

First: CC(C)Cc1cc(C(=O)NC23CC(NC(=O)COc4ccc(Cl)c(F)c4)(C2)C3)on1 [Compound 348, N-{3-[2-(4-chloro-3-fluorophenoxy)acetamido]bicyclo[1.1.1]pentan-1-yl}-3-(2-methylpropyl)-1,2-oxazole-5-carboxamide]
Second: O=C(COc1ccc(Cl)c(F)c1)NC12CC(NC(=O)c3ccnc(CO)c3)(C1)C2 [Compound 741, N-{3-[2-(4-chloro-3-fluorophenoxy)acetamido]bicyclo[1.1.1]pentan-1-yl}-2-(hydroxymethyl)pyridine-4-carboxamide]
The EC50 of the first is lower: 50 to 250 nM for the first, > 2000 nM for the second.

First: O=C(COc1ccc(Cl)c(F)c1)NC12CCC(NC(=O)c3ccno3)(CC1)C(O)C2 (stereo not drawn) [Compound 215, N-{4-[2-(4-chloro-3-fluorophenoxy)acetamido]-2-hydroxybicyclo[2.2.2]octan-1-yl}-1,2-oxazole-5-carboxamide]
Second: O=C(COc1ccc(Cl)c(F)c1)NC12CCC(NC(=O)c3ccn[nH]3)(CC1)C(O)C2 (stereo not drawn) [Compound 224, N-{4-[2-(4-chloro-3-fluorophenoxy)acetamido]-2-hydroxybicyclo[2.2.2]octan-1-yl}-1H-pyrazole-5-carboxamide]
The EC50 of the first is lower: 50 to 250 nM for the first, 250 to 1000 nM for the second. The first is the more potent here.

`O=C(COc1ccc(Cl)c(F)c1)NC12CCC(NC(=O)c3ccc(F)cn3)(CC1)CC2O` (stereo not drawn) [Compound 230, N-{4-[2-(4-chloro-3-fluorophenoxy)acetamido]-3-hydroxybicyclo[2.2.2]octan-1-yl}-5-fluoropyridine-2-carboxamide] and `O=C(COc1ccc(Cl)c(F)c1)NC12CCC(NC(=O)c3ccc(Cl)cn3)(CC1)C[C@@H]2O` [Compound 730, 5-chloro-N-{(3S)-4-[2-(4-chloro-3-fluorophenoxy)acetamido]-3-hydroxybicyclo[2.2.2]octan-1-yl}pyridine-2-carboxamide] fall in the same range of EC50: 50 to 250 nM for the first, 50 to 250 nM for the second.

First: CCc1cnc(C(=O)NC23CCC(NC(=O)COc4ccc(Cl)c(F)c4)(C2)C3)cn1 [Compound 712, N-{4-[2-(4-chloro-3-fluorophenoxy)acetamido]bicyclo[2.1.1]hexan-1-yl}-5-ethylpyrazine-2-carboxamide]
Second: COc1cnc(C(=O)NC23CC(NC(=O)COc4ccc(Cl)c(F)c4)(C2)C3)cn1 [Compound 124, N-{3-[2-(4-chloro-3-fluorophenoxy)acetamido]bicyclo[1.1.1]pentan-1-yl}-5-methoxypyrazine-2-carboxamide]
The EC50 of the first is lower: 250 to 1000 nM for the first, 1000 to 2000 nM for the second. The first is the more potent here.

`O=C(COc1ccc(Cl)c(F)c1)NC12CC(NC(=O)c3cnc4sccc4c3)(C1)C2` [Compound 723, N-{3-[2-(4-chloro-3-fluorophenoxy)acetamido]bicyclo[1.1.1]pentan-1-yl}thieno[2,3-b]pyridine-5-carboxamide] and `Cn1c(C(=O)NC23CC(NC(=O)COc4ccc(Cl)c(F)c4)(C2)C3)cc2sccc21` [Compound 841, N-{3-[2-(4-chloro-3-fluorophenoxy)acetamido]bicyclo[1.1.1]pentan-1-yl}-4-methyl-4H-thieno[3,2-b]pyrrole-5-carboxamide] fall in the same range of EC50: 250 to 1000 nM for the first, 250 to 1000 nM for the second.

`O=C(COc1ccc(Cl)c(Cl)c1)NC12CC(NC(=O)c3cccc(CO)n3)(C1)C2` [Compound 165, N-{3-[2-(3,4-dichlorophenoxy)acetamido]bicyclo[1.1.1]pentan-1-yl}-6-(hydroxymethyl)pyridine-2-carboxamide] and `COc1cccc(F)c1C(=O)NC12CC(NC(=O)COc3ccc(Cl)c(F)c3)(C1)C2` [Compound 528, N-{3-[2-(4-chloro-3-fluorophenoxy)acetamido]bicyclo[1.1.1]pentan-1-yl}-2-fluoro-6-methoxybenzamide] cannot be ordered by EC50: > 2000 nM for the first, > 2000 nM for the second.

Compared with `Cn1nc(C2CC2)cc1C(=O)NC12CC(NC(=O)COc3ccc(Cl)c(F)c3)(C1)C2` [Compound 329, N-{3-[2-(4-chloro-3-fluorophenoxy)acetamido]bicyclo[1.1.1]pentan-1-yl}-3-cyclopropyl-1-methyl-1H-pyrazole-5-carboxamide], `O=C(COc1ccc(Cl)c(F)c1)NC12CC(NC(=O)c3ncoc3C3CC3)(C1)C2` [Compound 769, N-{3-[2-(4-chloro-3-fluorophenoxy)acetamido]bicyclo[1.1.1]pentan-1-yl}-5-cyclopropyl-1,3-oxazole-4-carboxamide] is higher in EC50: 50 to 250 nM for the first, > 2000 nM for the second. The first is the more potent here.

Compared with `O=C(COc1ccc(Cl)c(F)c1)NC12CC(NC(=O)c3coc4ccccc34)(C1)C2` [Compound 243, N-{3-[2-(4-chloro-3-fluorophenoxy)acetamido]bicyclo[1.1.1]pentan-1-yl}-1-benzofuran-3-carboxamide], `N#Cc1ccc(C(=O)NC23CC(NC(=O)COc4ccc(Cl)c(F)c4)(C2)C3)cc1F` [Compound 371, N-{3-[2-(4-chloro-3-fluorophenoxy)acetamido]bicyclo[1.1.1]pentan-1-yl}-4-cyano-3-fluorobenzamide] is lower in EC50: 250 to 1000 nM for the first, 50 to 250 nM for the second.

Compared with `Cc1cnc(C(=O)NC23CCC(NC(=O)COc4ccc(Cl)c(F)c4)(CC2)[C@@H](O)C3)cn1` [Compound 666, N-{(3S)-4-[2-(4-chloro-3-fluorophenoxy)acetamido]-3-hydroxybicyclo[2.2.2]octan-1-yl}-5-methylpyrazine-2-carboxamide], `O=C(COc1ccc(Cl)c(F)c1)NC12CCC(NC(=O)c3cscn3)(CC1)CC2O` (stereo not drawn) [Compound 592, N-{4-[2-(4-chloro-3-fluorophenoxy)acetamido]-3-hydroxybicyclo[2.2.2]octan-1-yl}-1,3-thiazole-4-carboxamide] is higher in EC50: < 50 nM for the first, 50 to 250 nM for the second.

First: Cc1nn(C)cc1-c1ccnc(NC23CC(NC(=O)COc4ccc(Cl)c(F)c4)(C2)C3)n1 [Compound 429, 2-(4-chloro-3-fluorophenoxy)-N-(3-{[4-(1,3-dimethyl-1H-pyrazol-4-yl)pyrimidin-2-yl]amino}bicyclo[1.1.1]pentan-1-yl)acetamide]
Second: Cc1nn(C)cc1-c1cc(C(=O)NC23CC(NC(=O)COc4ccc(Cl)c(F)c4)(C2)C3)no1 [Compound 865, N-{3-[2-(4-chloro-3-fluorophenoxy)acetamido]bicyclo[1.1.1]pentan-1-yl}-5-(1,3-dimethyl-1H-pyrazol-4-yl)-1,2-oxazole-3-carboxamide]
The EC50 of the first is higher: > 2000 nM for the first, 1000 to 2000 nM for the second.

First: O=C(COc1ccc(Cl)c(F)c1)NC12CC(NC(=O)c3ccc4c(c3)OC(F)(F)O4)(C1)C2 [Compound 234, N-{3-[2-(4-chloro-3-fluorophenoxy)acetamido]bicyclo[1.1.1]pentan-1-yl}-2,2-difluoro-2H-1,3-benzodioxole-5-carboxamide]
Second: CC(C)Oc1ccc(C(=O)NC23CC(NC(=O)COc4ccc(Cl)c(F)c4)(C2)C3)cc1 [Compound 232, N-{3-[2-(4-chloro-3-fluorophenoxy)acetamido]bicyclo[1.1.1]pentan-1-yl}-4-[(propan-2-yl)oxy]benzamide]
The EC50 of the first is lower: < 50 nM for the first, 50 to 250 nM for the second.

First: O=C(COc1ccc(C(F)F)c(F)c1)NC12CC(NC(=O)c3cnc(C(F)F)cn3)(C1)C2 [Compound 475, 5-(difluoromethyl)-N-(3-{2-[4-(difluoromethyl)-3-fluorophenoxy]acetamido}bicyclo[1.1.1]pentan-1-yl)pyrazine-2-carboxamide]
Second: O=C(COc1ccc(C(F)(F)F)nc1)NC12CC(NC(=O)c3cnc(C(F)F)cn3)(C1)C2 [Compound 455, 5-(difluoromethyl)-N-[3-(2-{[6-(trifluoromethyl)pyridin-3-yl]oxy}acetamido)bicyclo[1.1.1]pentan-1-yl]pyrazine-2-carboxamide]
The EC50 of the first is lower: 50 to 250 nM for the first, > 2000 nM for the second. The first is the more potent here.

Compared with `Cc1cc(C(=O)NC23CCC(NC(=O)COc4ccc(Cl)c(F)c4)(CC2)C(O)C3)nn1C` (stereo not drawn) [Compound 468, N-{4-[2-(4-chloro-3-fluorophenoxy)acetamido]-3-hydroxybicyclo[2.2.2]octan-1-yl}-1,5-dimethyl-1H-pyrazole-3-carboxamide], `Cc1ccc(C(=O)NC23CCC(NC(=O)COc4ccc(Cl)c(F)c4)(CC2)C(O)C3)o1` (stereo not drawn) [Compound 624, N-{4-[2-(4-chloro-3-fluorophenoxy)acetamido]-3-hydroxybicyclo[2.2.2]octan-1-yl}-5-methylfuran-2-carboxamide] is lower in EC50: 250 to 1000 nM for the first, 50 to 250 nM for the second. The second is the more potent here.

`O=C(COc1ccc(Cl)c(F)c1)NC12CCC(NC(=O)c3ccccn3)(CC1)[C@@H](O)C2` [Compound 588, N-{(2S)-4-[2-(4-chloro-3-fluorophenoxy)acetamido]-2-hydroxybicyclo[2.2.2]octan-1-yl}pyridine-2-carboxamide] and `O=C(COc1ccc(Cl)c(F)c1)NC12CCC(NC(=O)c3cnc4ccccc4n3)(CC1)C[C@@H]2O` [Compound 667, N-{(3S)-4-[2-(4-chloro-3-fluorophenoxy)acetamido]-3-hydroxybicyclo[2.2.2]octan-1-yl}quinoxaline-2-carboxamide] cannot be ordered by EC50: < 50 nM for the first, < 50 nM for the second.

For `O=C(COc1ccc(Cl)c(F)c1)NC12CC(NC(=O)c3cnn(C(F)F)c3)(C1)C2` [Compound 724, N-{3-[2-(4-chloro-3-fluorophenoxy)acetamido]bicyclo[1.1.1]pentan-1-yl}-1-(difluoromethyl)-1H-pyrazole-4-carboxamide], the EC50 was 250 to 1000 nM.
